From patent US20230390247A1, “BIPHENYL PYRROLIDINE AND BIPHENYL DIHYDROIMIDAZOLE DERIVATIVES FOR INHIBITING ACTIVITY OF 5-HT7 SEROTONIN RECEPTOR, AND PHARMACEUTICAL COMPOSITION COMPRISING SAME AS ACTIVE INGREDIENT” (priority 2020, published 2023)
pIC50: −log10 of the molar value.

How the values were obtained:
[1] = target: T1, 5-HT7R (Homo sapiens (Human), UniProt P34969); assay: cAMP assay (luminescence-based, GloSensor); format: cell-based; details: HEK293 cells transfected with human 5-HT7R and GloSensor-22F
Method: For luminescence-based cAMP assay, HEK293 cells were cultured on a 150-mm dish. Prior to transfection, the culture medium was replaced from DMEM containing 10% FBS, 100 U/mL penicillin and 100 μg/mL streptomycin to DMEM containing 10% dialyzed FBS, 100 U/mL penicillin and 100 μg/mL streptomycin. 4 hours later, transfection was conducted using 10 μg of a human 5-HT7R plasmid and 10 μg of a GloSensor-22F plasmid (Promega). The transfected cells were prepared on a white, flat, clear-bottom, 384-well plate (Greiner) (15,000 cells/well, 20 μL/well). 6 hours later, after removing the culture medium, the cells were treated with 20 μL of a 3% Glosensor cAMP reagent containing luciferin in a 1×HBSS, […], pH 7.4 buffer. In addition, the compound of each of the examples was prepared at different concentrations in an assay buffer containing 0.1% bovine serum albumin. 30 minutes later, 10 μL of the compound solution was treated to the cells. After measuring luminescence using a Tecan microplate reader (Spark), IC50 value was obtained using the Prism 8.0 program (GraphPad Software).

[2] = target: T1, 5-HT7R; assay: Tango assay (β-arrestin signaling system); format: cell-based; details: HTLA cells transfected with 5-HT7R-TCS-tTA construct
Method: Tango assay was conducted using HTLA cells in order to investigate the activity of the β-arrestin signaling system. Prior to transfection, the culture medium was replaced from DMEM containing 10% FBS, 100 U/mL penicillin, 100 μg/mL streptomycin, 2 μg/mL puromycin and 100 μg/mL hygromycin B to DMEM containing 10% dialyzed FBS, 100 U/mL penicillin and 100 μg/mL streptomycin. 4 hours later, transfection was conducted using 20 μg of a 5-HT7R-TCS-tTA construct (5-HT7R Tango DNA). The transfected cells were prepared on a white, flat, clear-bottom, 384-well plate (Greiner) (15,000 cells/well, 20 μL/well) using DMEM containing 10% dialyzed FBS, 100 U/mL penicillin and 100 μg/mL streptomycin. 6 hours later, after removing the culture medium, the cells were treated with 10 μL of the compound solution. After culturing for 22 hours and removing the culture medium, the cells were treated with 20 μL of a BrightGlo reagent (Promega) diluted in a 1×HBSS, […], pH 7.4 buffer. After measuring luminescence using a Tecan microplate reader (Spark), IC50 value was obtained using the Prism 8.0 program (GraphPad Software).

T1 sequence (P34969 whole entry): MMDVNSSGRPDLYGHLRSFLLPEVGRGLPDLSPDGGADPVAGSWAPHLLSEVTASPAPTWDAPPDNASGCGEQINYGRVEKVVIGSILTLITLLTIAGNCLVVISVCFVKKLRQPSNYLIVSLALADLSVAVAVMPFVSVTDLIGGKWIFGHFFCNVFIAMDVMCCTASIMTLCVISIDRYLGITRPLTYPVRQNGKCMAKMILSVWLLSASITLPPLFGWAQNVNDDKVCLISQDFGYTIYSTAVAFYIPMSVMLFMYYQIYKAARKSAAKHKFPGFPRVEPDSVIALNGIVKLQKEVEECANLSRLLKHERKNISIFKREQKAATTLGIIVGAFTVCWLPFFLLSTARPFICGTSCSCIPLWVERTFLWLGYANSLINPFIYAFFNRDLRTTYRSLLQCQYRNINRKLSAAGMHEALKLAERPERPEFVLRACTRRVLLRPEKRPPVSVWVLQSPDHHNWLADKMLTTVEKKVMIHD

| SMILES | inhibition at 10 µM [1] [%] | inhibition at 10 µM [2] [%] | pIC50 [1] | pIC50 [2] |
| --- | --- | --- | --- | --- |
| Cc1ccccc1-c1cccc(CN2CCCC2)c1 [Compound 5, 1-((2′-methyl-[1,1′-biphenyl]-3-yl)methyl)pyrrolidine] | 49.5 | 25 | – | – |
| Cc1ccc(-c2cccc(CN3CCCC3)c2)cc1 [Compound 7, 1-((4′-methyl-[1,1′-biphenyl]-3-yl)methyl)pyrrolidine] | 32.5 | 20.6 | – | – |
| COc1ccc(-c2cc(CN3CCCC3)ccc2Cl)cc1 [Compound 21, 1-((6-chloro-4′-methoxy-[1,1′-biphenyl]-3-yl)methyl)pyrrolidine] | 44.7 | 18.6 | – | – |
| Clc1ccc(-c2cccc(C3=NCCN3)c2)cc1 [Compound 26, 2-(4′-chloro-[1,1′-biphenyl]-3-yl)-4,5-dihydro-1H-imidazole] | 43 | 23.1 | – | – |
| Clc1cccc(-c2cccc(CN3CCCC3)c2)c1 [Compound 3, 1-((3′-chloro-[1,1′-biphenyl]-3-yl)methyl)pyrrolidine] | 85.9 | 33.2 | 5.31 | – |
| COc1ccccc1-c1cccc(CN2CCCC2)c1 [Compound 8, 1-((2′-methoxy-[1,1′-biphenyl]-3-yl)methyl)pyrrolidine] | 57.1 | 18 | – | – |
| COc1ccc(-c2cccc(C3=NCCN3)c2)cc1 [Compound 32, 2-(4′-methoxy-[1,1′-biphenyl]-3-yl)-4,5-dihydro-1H-imidazole] | 40.8 | 11.9 | – | – |
| Cc1ccc(-c2cccc(C3=NCCN3)c2)cc1 [Compound 29, 2-(4′-methyl-[1,1′-biphenyl]-3-yl)-4,5-dihydro-1H-imidazole] | 35.2 | 17.2 | – | – |
| Cc1ccccc1-c1cc(CN2CCCC2)ccc1Cl [Compound 16, 1-((6-chloro-2′-methyl-[1,1′-biphenyl]-3-yl)methyl)pyrrolidine] | 73.3 | 30.9 | 5.19 | – |
| Clc1cccc(-c2cc(CN3CCCC3)ccc2Cl)c1 [Compound 14, 1-((3′,6-dichloro-[1,1′-biphenyl]-3-yl)methyl)pyrrolidine] | 51.1 | 27.9 | – | – |
| COc1ccccc1-c1c(Cl)ccc(CN2CCCC2)c1OC [Compound 22, 1-((6-chloro-2,6′-dimethoxy-[1,1′-biphenyl]-3-yl)methyl)pyrrolidine] | 42.7 | 3.3 | – | – |
| COc1cccc(OC)c1-c1cc(C2=NCCN2)ccc1Cl [Compound 44, 2-(6-chloro-2′,6′-dimethoxy-[1,1′-biphenyl]-3-yl)-4,5-dihydro-1H-imidazole] | 48.4 | 9.8 | – | – |
| COc1ccc(-c2cccc(CN3CCCC3)c2)cc1 [Compound 10, 1-((4′-methoxy-[1,1′-biphenyl]-3-yl)methyl)pyrrolidine] | 37.9 | 23.1 | – | – |
| Cc1cccc(-c2cc(CN3CCCC3)ccc2Cl)c1 [Compound 17, 1-((6-chloro-3′methyl-[1,1′-biphenyl]-3-yl)methyl)pyrrolidine] | 51.8 | 11.4 | – | – |
| Clc1ccccc1-c1cccc(C2=NCCN2)c1 [Compound 24, 2-(2′-chloro-[1,1′-biphenyl]-3-yl)-4,5-dihydro-1H-imidazole] | 47.6 | 36 | – | – |
| COc1cccc(-c2cccc(CN3CCCC3)c2)c1 [Compound 9, 1-((3′-methoxy-[1,1′-biphenyl]-3-yl)methyl)pyrrolidine] | 67.2 | 16.7 | 5.19 | – |

| SMILES | inhibition at 10 µM [1] [%] | inhibition at 10 µM [2] [%] | pIC50 [1] | pIC50 [2] |
| --- | --- | --- | --- | --- |
| Clc1cccc(-c2cc(C3=NCCN3)ccc2Cl)c1 [Compound 36, 2-(3′,6-dichloro-[1,1′-biphenyl]-3-yl)-4,5-dihydro-1H-imidazole] | 52.4 | 44.8 | – | 5.00 |
| COc1cccc(OC)c1-c1cccc(CN2CCCC2)c1 [Compound 11, 1-((2′,6′-dimethoxy-[1,1′-biphenyl]-3-yl)methyl)pyrrolidine] | 32.8 | 5.1 | – | – |
| Clc1ccc(-c2cccc(CN3CCCC3)c2)cc1 [Compound 4, 1-((4′-chloro-[1,1′-biphenyl]-3-yl)methyl)pyrrolidine] | 38.1 | 14.1 | – | – |
| Cc1cccc(-c2cccc(CN3CCCC3)c2)c1 [Compound 6, 1-((3′-methyl-[1,1′-biphenyl]-3-yl)methyl)pyrrolidine] | 38.9 | 22 | – | – |
| Clc1ccccc1-c1cc(C2=NCCN2)ccc1Cl [Compound 35, 2-(2′,6-dichloro-[1,1′-biphenyl]-3-yl)-4,5-dihydro-1H-imidazole] | 53.8 | 42 | – | 4.69 |
| c1ccc(-c2cccc(CN3CCCC3)c2)cc1 [Compound 1, 1-([1,1′-biphenyl]-3-ylmethyl)pyrrolidine] | 42.1 | 17.5 | – | 4.64 |
| COc1cccc(-c2cc(CN3CCCC3)ccc2Cl)c1 [Compound 20, 1-((6-chloro-3′methoxy-[1,1′-biphenyl]-3-yl)methyl)pyrrolidine] | 70.1 | 26 | 5.13 | – |
| Cc1ccccc1-c1cccc(C2=NCCN2)c1 [Compound 27, 2-(2′-methyl-[1,1′-biphenyl]-3-yl)-4,5-dihydro-1H-imidazole] | 55.3 | 23 | – | – |
| Clc1ccc(-c2cc(CN3CCCC3)ccc2Cl)cc1 [Compound 15, 1-((4′,6-dichloro-[1,1′-biphenyl]-3-yl)methyl)pyrrolidine] | 63.8 | 34.3 | 5.15 | – |
| COc1cccc(OC)c1-c1cccc(C2=NCCN2)c1 [Compound 33, 2-(2′,6′-dimethoxy-[1,1′-biphenyl]-3-v1)-4 1 5-dihydro-1H-imidazole] | 32.8 | 14 | – | – |
| Clc1cccc(-c2cccc(C3=NCCN3)c2)c1 [Compound 25, 2-(3′-chloro-[1,1′-biphenyl]-3-yl)-4,5-dihydro-1H-imidazole] | 50.9 | 43.6 | – | 4.98 |
| COc1ccc(-c2cc(C3=NCCN3)ccc2Cl)cc1 [Compound 43, 2-(6-chloro-4′-methoxy-[1,1-biphenyl]-3-yl)-4,5-dihydro-1H-imidazole] | 36.8 | 21.5 | – | – |
| Cc1cccc(-c2cccc(C3=NCCN3)c2)c1 [Compound 28, 2-(3′-methyl-[1,1′-biphenyl]-3-yl)-4,5-dihydro-1H-imidazole] | 44.6 | 28.8 | – | – |
| COc1cccc(-c2cc(C3=NCCN3)ccc2Cl)c1 [Compound 42, 2-(6-chloro-3′-methoxy-[1,1′-biphenyl]-3-yl)-4,5-dihydro-1H-imidazole] | 49.8 | 23.4 | – | – |
| COc1cccc(-c2cccc(C3=NCCN3)c2)c1 [Compound 31, 2-(3′-methoxy-[1,1′-biphenyl]-3-yl)-4,5-dihydro-1H-imidazole] | 72.5 | 27.8 | 5.24 | – |
| Cc1ccccc1-c1cc(C2=NCCN2)ccc1Cl [Compound 38, 2-(6-chloro-2′-methyl-[1,1′-biphenyl]-3-yl)-4,5-dihydro-1H-imidazole] | 51.4 | 31.7 | – | – |
